Earlier results as cited in US11191734B2, “Ketamine transdermal delivery system” (SHENOX PHARMACEUTICALS, LLC, priority 2015, dated 2021).

How the values were obtained:
[1] = not given; remark: listed apart in the source
[2] = in vivo
NMDA receptor = conditions: in vitro
[3] = three-compartment model, 70-kg human

## CN[C@@]1(c2ccccc2Cl)CCCCC1=O [R-ketamine]
Animal model studies
  antidepressant effectiveness: more effective as an antidepressant than S-ketamine
In vivo
  psychotomimetic side effects and abuse liability: free of psychotomimetic side effects and abuse liability

## CNC1(c2ccccc2Cl)CCCCC1=O (racemic) [ketamine]
[1]; in humans
  absolute oral bioavailability: 10-20%
[1]; in vivo
  half-life: about 2 hours
  systemic (primarily hepatic) clearance: about 19 ml/min·kg
[1]; [3]
  V1: 133 L
  clearance: 79.8 L/h
  micro constant k12: 0.174 h⁻¹
  micro constant k13: 1.18 h⁻¹
  micro constant k21: 0.124 h⁻¹
  micro constant k31: 1.59 h⁻¹
[2]
  onset of antidepressant effect after administration: ≤ 2 h

## CN[C@]1(c2ccccc2Cl)CCCCC1=O [S-ketamine]
NMDA receptor
  affinity on NMDA receptor binding relative to R-ketamine: ~4 fold
